In patent US20250346585A1 (Alexion Pharmaceuticals, Inc., priority 2022, published 2025):

The molecules below were run against Human complement C1s enzyme (Homo sapiens (Human), UniProt P09871) (assay: Human C1s enzyme assay). Details: Human C1s enzyme assay of Example 3; read-out: IC50 (Stars).
Format: biochemical
Description: Human complement C1s enzyme (purified from human serum, Complement Technology, Inc.) at 1.16 nM final concentration was incubated with test compound at various concentrations for 5 min at room temperature in 50 mM Tris, 1 M NaCl, pH 7.5. A synthetic substrate Z-L-Lys-SBzl and DTNB (Ellman's reagent) were added to final concentrations of 100 μM each. Absorbance at 405 nm (A405) was recorded at 30 second intervals for 30 min using a microplate spectrophotometer. IC50 values were calculated by nonlinear regression of complement C1s reaction rates as a function of test compound concentration.

Sequence of Human complement C1s enzyme (P09871 438-688 limits assumed): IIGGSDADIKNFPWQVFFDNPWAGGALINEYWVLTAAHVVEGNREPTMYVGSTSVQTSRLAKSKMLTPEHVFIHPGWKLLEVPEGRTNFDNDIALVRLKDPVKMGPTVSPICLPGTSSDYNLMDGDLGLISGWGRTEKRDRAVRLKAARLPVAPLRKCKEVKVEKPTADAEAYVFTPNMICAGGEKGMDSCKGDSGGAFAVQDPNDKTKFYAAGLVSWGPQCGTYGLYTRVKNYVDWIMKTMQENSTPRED
Sequence of Human complement C1s enzyme (P09871 16-437 partner limits assumed): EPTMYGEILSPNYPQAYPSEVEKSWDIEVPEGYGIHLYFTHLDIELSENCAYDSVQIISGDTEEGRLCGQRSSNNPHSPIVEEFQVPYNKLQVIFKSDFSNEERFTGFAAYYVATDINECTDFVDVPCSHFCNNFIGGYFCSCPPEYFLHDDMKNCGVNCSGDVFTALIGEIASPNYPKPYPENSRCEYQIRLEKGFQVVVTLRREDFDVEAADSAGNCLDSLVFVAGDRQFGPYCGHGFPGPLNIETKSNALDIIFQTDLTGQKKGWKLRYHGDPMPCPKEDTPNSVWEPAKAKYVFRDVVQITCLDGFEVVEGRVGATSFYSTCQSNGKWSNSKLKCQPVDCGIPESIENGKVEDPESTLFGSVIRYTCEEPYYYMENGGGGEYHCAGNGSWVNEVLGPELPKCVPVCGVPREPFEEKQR

| SMILES | IC50 [nM] |
| --- | --- |
| C[C@@H](NC(=O)[C@@H]1CC2(CN1C(=O)CNC(=O)c1ccc(-c3ccc(F)cc3)cn1)OCCO2)c1cc(C(=N)N)cs1 [Compound 163, (S)—N—((R)-1-(4-carbamimidoylthiophen-2-yl)ethyl)-7-((5-(4-fluorophenyl)picolinoyl)glycyl)-1,4-dioxa-7-azaspiro[4.4]nonane-8-carboxamide] | < 100 |
| COC[C@@]1(F)C[C@@H](C(=O)N[C@H](C)c2cc(C(=N)N)cs2)N(C(=O)CNC(=O)c2ccc(Oc3ccc(C(F)(F)F)cc3)cc2)C1 [Compound 18, (2S,4R)—N—((R)-1-(4-carbamimidoylthiophen-2-yl)ethyl)-4-fluoro-4-(methoxymethyl)-1-((4-(4-(trifluoromethyl)phenoxy)benzoyl)glycyl)pyrrolidine-2-carboxamide] | < 100 |
| C[C@@H](NC(=O)[C@@H]1C[C@](F)(COCCCCCCCCCC(=O)O)CN1C(=O)CNC(=O)c1ccc2c(c1)-c1ccccc1C2(F)F)c1cc(C(=N)N)cs1 [Compound 194, 10-(((3R,5S)-5-(((R)-1-(4-carbamimidoylthiophen-2-yl)ethyl)carbamoyl)-1-((9,9-difluoro-9H-fluorene-3-carbonyl)glycyl)-3-fluoropyrrolidin-3-yl)methoxy)decanoic acid] | < 100 |
| C[C@@H](NC(=O)[C@@H]1C[C@](F)(COCCNC(=O)CC[C@H](NC(=O)CCCCCCCCCCCCCCCCC(=O)O)C(=O)O)CN1C(=O)CNC(=O)c1ccc2c(c1)-c1ccccc1C2(F)F)c1cc(C(=N)N)cs1 [Compound 133, 18-(((S)-4-((2-(((3R,5S)-5-(((R)-1-(4-carbamimidoylthiophen-2-yl)ethyl)carbamoyl)-1-((9,9-difluoro-9H-fluorene-3-carbonyl)glycyl)-3-fluoropyrrolidin-3-yl)methoxy)ethyl)amino)-1-carboxy-4-oxobutyl)amino)-18-oxooctadecanoic acid] | < 100 |
| C[C@@H](NC(=O)[C@@H]1C[C@H](c2nccs2)CN1C(=O)CNC(=O)c1ccc(Oc2ccc(F)cc2)cc1)c1cc(C(=N)N)cs1 [Compound 171, (2S,4S)—N—((R)-1-(4-carbamimidoylthiophen-2-yl)ethyl)-1-((4-(4-fluorophenoxy)benzoyl)glycyl)-4-(thiazol-2-yl)pyrrolidine-2-carboxamide] | < 100 |
| Cc1ccc(-c2cnc(C(=O)NCC(=O)N3CC4(C[C@H]3C(=O)NCc3cc(C(=N)N)cs3)OCCO4)c(F)c2)cc1 [Compound 102, (S)—N-((4-carbamimidoylthiophen-2-yl)methyl)-7-((3-fluoro-5-(p-tolyl)picolinoyl)glycyl)-1,4-dioxa-7-azaspiro[4.4]nonane-8-carboxamide] | < 100 |
| C[C@@]12C[C@@H]1N(C(=O)CNC(=O)c1ccc3c(c1)CCCO3)[C@H](C(=O)NCc1cc(C(=N)N)cs1)C2 [Compound 1, (1S,3S,5S)—N-((4-carbamimidoylthiophen-2-yl)methyl)-2-((chromane-6-carbonyl)glycyl)-5-methyl-2-azabicyclo[3.1.0]hexane-3-carboxamide] | < 100 |

Same assay, conditions: Human complement C1s enzyme 1.16 nM, substrate Z-L-Lys-SBzl 100 μM, assay of Example 3; read-out: IC50 (Stars)

| SMILES | IC50 [nM] |
| --- | --- |
| C[C@@H](NC(=O)[C@@H]1C[C@](F)(CO)CN1C(=O)CNC(=O)c1ccc2c(c1)-c1ccccc1C2(F)F)c1cc(C(=N)N)cs1 [Compound 292, (2S,4R)—N—((R)-1-(4-carbamimidoylthiophen-2-yl)ethyl)-1-((9,9-difluoro-9H-fluorene-3-carbonyl)glycyl)-4-fluoro-4-(hydroxymethyl)pyrrolidine-2-carboxamide] | < 100 |
| C[C@@H](NC(=O)[C@@H]1C[C@](F)(CF)CN1C(=O)CNC(=O)c1ccc2c(c1)C(C)(C)c1ccccc1-2)c1cc(C(=N)N)cs1 [Compound 368, (2S,4R)—N—((R)-1-(4-carbamimidoylthiophen-2-yl)ethyl)-1-((9,9-dimethyl-9H-fluorene-2-carbonyl)glycyl)-4-fluoro-4-(fluoromethyl)pyrrolidine-2-carboxamide] | < 100 |
| N=C(N)c1csc(CNC(=O)[C@@H]2CC3(CN2C(=O)CNC(=O)c2ccc(-c4ccncc4F)cc2)OCCO3)c1 [Compound 266, (S)—N-((4-carbamimidoylthiophen-2-yl)methyl)-7-((4-(3-fluoropyridin-4-yl)benzoyl)glycyl)-1,4-dioxa-7-azaspiro[4.4]nonane-8-carboxamide] | < 100 |
| COC[C@@]1(F)C[C@@H](C(=O)N[C@H](C)c2cc(C(=N)N)cs2)N(C(=O)CNC(=O)c2ccc3c(c2)C(C)(C)c2ccccc2-3)C1 [Compound 344, (2S,4R)—N—((R)-1-(4-carbamimidoylthiophen-2-yl)ethyl)-1-((9,9-dimethyl-9H-fluorene-2-carbonyl)glycyl)-4-fluoro-4-(methoxymethyl) pyrrolidine-2-carboxamide] | < 100 |
| N=C(N)c1csc([C@H](NC(=O)[C@@H]2CC3(CN2C(=O)CNC(=O)c2ccc4c(c2)-c2ccccc2C4(F)F)OCCO3)C(F)(F)F)c1 (single isomer, unassigned) [Compound 246, (S)—N—((R*)-1-(4-carbamimidoylthiophen-2-yl)-2,2,2-trifluoroethyl)-7-((9,9-difluoro-9H-fluorene-3-carbonyl)glycyl)-1,4-dioxa-7-azaspiro[4.4]nonane-8-carboxamide] | < 100 |
| Nc1c(Nc2csc(CNC(=O)[C@@H]3CC4(CN3C(=O)CNC(=O)c3ccc(Oc5ccc(F)cc5)cc3)OCCO4)c2)c(=O)c1=O [Compound 319, (S)-N-((4-((2-amino-3,4-dioxocyclobut-1-en-1-yl)amino)thiophen-2-yl)methyl)-7-((4-(4-fluorophenoxy)benzoyl)glycyl)-1,4-dioxa-7-azaspiro[4.4]nonane-8-carboxamide] | > 1000 |
| CCS(=O)(=O)[C@@H]1C[C@@H](C(=O)N[C@H](C)c2cc(C(=N)N)cs2)N(C(=O)CNC(=O)c2ccc3c(c2)-c2ccccc2C3(F)F)C1 [Compound 238, (2S,4R)—N—((R)-1-(4-carbamimidoylthiophen-2-yl)ethyl)-1-((9,9-difluoro-9H-fluorene-3-carbonyl)glycyl)-4-(ethylsulfonyl)pyrrolidine-2-carboxamide] | < 100 |
| NCCC(=O)Nc1csc(CNC(=O)[C@@H]2CC3(CN2C(=O)CNC(=O)c2ccc(Oc4ccc(F)cc4)cc2)OCCO3)c1 [Compound 311, (S)-N-((4-(3-aminopropanamido)thiophen-2-yl)methyl)-7-((4-(4-fluorophenoxy)benzoyl)glycyl)-1,4-dioxa-7-azaspiro[4.4]nonane-8-carboxamide] | > 1000 |

Same assay, conditions: Human complement C1s enzyme 1.16 nM, substrate Z-L-Lys-SBzl; assay of Example 3; read-out: IC50 (Stars)

| SMILES | IC50 [nM] |
| --- | --- |
| C[C@@H](NC(=O)[C@@H]1C[C@]2(COCCCN(C)C)C[C@@H]2N1C(=O)CNC(=O)c1ccc2c(c1)-c1ccccc1C2(F)F)c1cc(C(=N)N)cs1 [Compound 422, (1S,3S,5R)-N-((R)-1-(4-carbamimidoylthiophen-2-yl)ethyl)-2-((9,9-difluoro-9H-fluorene-3-carbonyl)glycyl)-5-((3-(dimethylamino)propoxy)methyl)-2-azabicyclo[3.1.0]hexane-3-carboxamide] | < 100 |
| N=C(N)c1csc([C@@H](CO)NC(=O)[C@@H]2C[C@](F)(CF)CN2C(=O)CNC(=O)c2ccc3c(c2)-c2ccccc2C3(F)F)c1 [Compound 398, (2S,4R)—N—((R)-1-(4-carbamimidoylthiophen-2-yl)-2-hydroxyethyl)-1-((9,9-difluoro-9H-fluorene-3-carbonyl)glycyl)-4-fluoro-4-(fluoromethyl)pyrrolidine-2-carboxamide] | < 100 |
